Results: patent publication US6429212B1, “Medicinal composition” (Ishihara Sangyo Kaisha Ltd., priority 1996, dated 2002)

How the values were obtained:
[1] = target: T1, human platelet derived endothelial cell growth factor (thymidine phosphorylase) (Homo sapiens, UniProt P19971); assay: Inhibitory activity to platelet derived endothelial cell growth factor (thymidine phosphorylase); type: biochemical; conditions: 37° C., 90 minutes, pH 5.6, absorbance at 300 nm; from 0.1, 1, 10 and 100 μg/ml
T1 construct: purchased Sigma
T1 sequence (P19971 11-482): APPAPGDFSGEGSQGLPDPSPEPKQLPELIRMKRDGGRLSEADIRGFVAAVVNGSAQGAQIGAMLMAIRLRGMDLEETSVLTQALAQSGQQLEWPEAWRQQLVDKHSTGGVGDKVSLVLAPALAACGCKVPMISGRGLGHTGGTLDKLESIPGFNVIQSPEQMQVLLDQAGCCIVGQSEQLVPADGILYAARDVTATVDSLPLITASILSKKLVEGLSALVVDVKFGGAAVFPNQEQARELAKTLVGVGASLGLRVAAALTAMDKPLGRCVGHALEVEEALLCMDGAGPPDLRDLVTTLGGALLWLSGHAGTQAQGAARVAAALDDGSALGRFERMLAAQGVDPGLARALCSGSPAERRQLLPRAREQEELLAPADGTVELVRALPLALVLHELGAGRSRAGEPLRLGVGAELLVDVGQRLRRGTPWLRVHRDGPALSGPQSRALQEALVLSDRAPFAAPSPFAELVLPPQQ
Method: (1) 100 mmol/l of thymidine (produced by Wako Pure Chemical Industries, Ltd.), 500 mmol/l of K2HPO4 (produced by Nacalai Tesque) and 0.5 mol/l of 2-morpholinoethansulfonic acid.H2O (pH 5.6; produced by Dojindo Laboratories) were prepared.
(2) The compound of the general formula (I) was dissolved in dimethylsulfoxide solution having a concentration of at most 10%, to prepare a test sample having a concentration of the compound of the general formula (I) of 1.0 mg/ml.
(3) 5 μg/ml of human platelet derived endothelial cell growth factor (produced by Sigma) was prepared. […]
(6) Absorbance of the solution for measurement was measured by using a spectrophotometer (SPECTRA max 250: produced by Molecular Devices) at a wavelength of 300 nm.
(7) Sterile water was added to 100 μl of buffer solution having 0.5 mol/l of 2-morpholinoethansulfonic acid.H2O (pH 5.6) and 20 μl of the test sample having a concentration of the compound of the general formula (I) of 1.0 mg/ml, so that the total amount was 200 μl, to prepare a solution of the compound of the general formula (I) having a final concentration of 100 μg/ml. Absorbance of a liquid having 50 μl of 2N-NaOH added to 50 μl of the solution, as a sample for measuring background, was measured at a wavelength of 300 nm. […]

aminopeptidase N = aminopeptidase N (Homo sapiens, UniProt P15144); assay: Inhibitory effect to aminopeptidase N (L-alanine-7-amido-4-methylcoumarin substrate, MOLT-4 cells, fluorescence); type: biochemical; conditions: based on fluorescence intensity of the control fraction (Table 13, Test Example 9)
Chain of aminopeptidase N (P15144 2-967): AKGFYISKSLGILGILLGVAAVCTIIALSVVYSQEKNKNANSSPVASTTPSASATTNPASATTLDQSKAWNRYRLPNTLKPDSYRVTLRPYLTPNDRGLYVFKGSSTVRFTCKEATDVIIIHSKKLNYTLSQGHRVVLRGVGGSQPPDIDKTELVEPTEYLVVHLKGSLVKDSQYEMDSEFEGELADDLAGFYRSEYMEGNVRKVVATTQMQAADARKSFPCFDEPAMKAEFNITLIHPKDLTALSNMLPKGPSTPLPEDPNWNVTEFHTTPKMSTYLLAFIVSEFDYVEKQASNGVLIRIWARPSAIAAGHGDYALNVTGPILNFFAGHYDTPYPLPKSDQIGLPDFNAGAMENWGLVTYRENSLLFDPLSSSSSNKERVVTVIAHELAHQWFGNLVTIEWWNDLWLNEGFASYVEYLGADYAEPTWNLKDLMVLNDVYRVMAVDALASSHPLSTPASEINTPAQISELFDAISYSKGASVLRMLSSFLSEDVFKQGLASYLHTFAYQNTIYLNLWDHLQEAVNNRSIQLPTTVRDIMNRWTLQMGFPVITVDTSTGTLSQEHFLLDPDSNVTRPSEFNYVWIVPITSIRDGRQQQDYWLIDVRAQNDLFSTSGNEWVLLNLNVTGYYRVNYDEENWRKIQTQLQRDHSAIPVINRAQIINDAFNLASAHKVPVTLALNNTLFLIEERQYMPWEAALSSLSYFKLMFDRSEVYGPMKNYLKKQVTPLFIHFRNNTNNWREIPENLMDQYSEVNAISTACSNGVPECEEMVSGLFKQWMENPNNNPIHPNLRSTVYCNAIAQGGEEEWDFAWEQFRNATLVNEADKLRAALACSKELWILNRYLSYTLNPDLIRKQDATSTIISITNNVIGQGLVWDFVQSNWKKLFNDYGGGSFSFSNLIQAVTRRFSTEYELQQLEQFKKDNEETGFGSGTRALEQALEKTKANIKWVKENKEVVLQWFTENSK
Method: As the substrate buffer solution, 100 mM Hepes buffer solution pH 7.6 (including 120 mM sodium chloride, 5 mM potassium chloride, 1.2 mM magnesium sulfate and 0.5% bovine serum albumin) was used. After the reaction was finished, fluorescence intensity was measured by using MTP-32 Colonna microplate reader (produced by Colonna Electric) under measurement condition at an excitation wavelength of 380 nm and at an emission wavelength of 440 nm. […] The values in the Table are based on fluorescence intensity of the control fraction, and represent the enzyme-inhibitory activity as IC50 (μg/ml).

| IC50 [1] [µM] | Aminopeptidase N inhibiting activity IC50 (aminopeptidase N) [mg/L] | Structure (SMILES) |
| --- | --- | --- |
| 160 |  | O=C1Cc2ccccc2C(=O)N1c1ccccc1 [Compound A-1, N-phenyl-homophthalimide] |
| 230 |  | Cc1cccc(C)c1N1C(=O)Cc2ccccc2C1=O [Compound A-2, N-(2,6-dimethylphenyl)-homophthalimide] |
|  | 38 | CSc1ccccc1N1C(=O)c2cccc(O)c2C1=O [Compound 194] |
